In patent US9517228B2, “Cannabinoid receptor antagonists/inverse agonists useful for treating metabolic disorders, including obesity and diabetes” (Jenrin Discovery, priority 2012, dated 2016):
pIC50: −log10 of the molar value.

Biological target: CB1R (Mus musculus (Mouse), UniProt P47746)
Experiment: CB1R competition displacement binding with [3H]CP-55,940
Details: [3H]CP-55,940 radioligand, crude membranes from mouse brain, triplicates; read-out: CB1 IC50
Description: Compound binding to CB1R was assessed in competition displacement assays using [3H]CP-55,940 as the radioligand and crude membranes from mouse brain. See Tam, J., Vemuri, V. K., Liu, J., Batkai, S., Mukhopadhyay, B., Godlewski, G., Osei-Hyiaman, D., Ohnuma, S., Ambudkar, S. V., Pickel, J., et al., J. Clin. Invest. 2010, 120, 2953-2966. All data were in triplicates with Ki values determined from three independent experiments.

Chain of CB1R (P47746 whole entry): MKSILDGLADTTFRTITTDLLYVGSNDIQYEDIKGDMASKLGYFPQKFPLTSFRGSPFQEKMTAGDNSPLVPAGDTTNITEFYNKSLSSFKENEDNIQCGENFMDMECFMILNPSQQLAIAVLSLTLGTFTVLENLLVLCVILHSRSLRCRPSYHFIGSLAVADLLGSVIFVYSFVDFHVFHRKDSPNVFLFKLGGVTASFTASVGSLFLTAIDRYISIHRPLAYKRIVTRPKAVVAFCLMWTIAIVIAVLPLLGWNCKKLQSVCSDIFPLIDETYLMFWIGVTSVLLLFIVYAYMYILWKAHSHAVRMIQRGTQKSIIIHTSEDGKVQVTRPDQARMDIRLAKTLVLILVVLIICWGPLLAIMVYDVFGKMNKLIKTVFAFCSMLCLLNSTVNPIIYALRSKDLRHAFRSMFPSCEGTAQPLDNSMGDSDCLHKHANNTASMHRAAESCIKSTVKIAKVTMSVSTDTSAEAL

First: NC(=O)CN/C(=N\S(=O)(=O)c1ccc(Cl)cc1)N1C[C@H](c2ccccc2)C(c2ccc(Cl)cc2)=N1 [Example 1]
Second: NC(=O)CN/C(=N\S(=O)(=O)c1ccc(Cl)cc1)N1C[C@@H](c2ccccc2)C(c2ccc(Cl)cc2)=N1 [Example 1a]
The pIC50 of the first is higher: over 7.00 for the first, under 6.00 for the second.

First: C[C@@H](O)[C@H](N/C(=N\S(=O)(=O)c1ccc(Cl)cc1)N1C[C@H](c2ccccc2)C(c2ccc(Cl)cc2)=N1)C(N)=O [Example 2, (2S,3R)-2-((S)-3-(4-chlorophenyl)-N′-((4-chlorophenyl)sulfonyl)-4-phenyl-4,5-dihydro-1H-pyrazole-1-carboximidamido)-3-hydroxybutanamide]
Second: C[C@@H](O)[C@H](N/C(=N\S(=O)(=O)c1ccc(Cl)cc1)N1C[C@@H](c2ccccc2)C(c2ccc(Cl)cc2)=N1)C(N)=O [Example 2a, (2S,3R)-2-((R)-3-(4-chlorophenyl)-N′-((4-chlorophenyl)sulfonyl)-4-phenyl-4,5-dihydro-1H-pyrazole-1-carboximidamido)-3-hydroxybutanamide]
The pIC50 of the first is higher: over 7.00 for the first, under 6.00 for the second.

Compared with `NC(=O)[C@H](CO)N/C(=N\S(=O)(=O)c1ccc(Cl)cc1)N1C[C@H](c2ccccc2)C(c2ccc(Cl)cc2)=N1` [Example 3], `NC(=O)[C@H](CO)N/C(=N\S(=O)(=O)c1ccc(Cl)cc1)N1C[C@@H](c2ccccc2)C(c2ccc(Cl)cc2)=N1` [Example 3a] is lower in pIC50: over 7.00 for the first, 6.00 to 6.30 for the second.

First: CC(C)[C@H](N/C(=N\S(=O)(=O)c1ccc(Cl)cc1)N1C[C@H](c2ccccc2)C(c2ccc(Cl)cc2)=N1)C(N)=O [Example 4]
Second: CC(C)[C@H](N/C(=N\S(=O)(=O)c1ccc(Cl)cc1)N1C[C@@H](c2ccccc2)C(c2ccc(Cl)cc2)=N1)C(N)=O [Example 4a]
The pIC50 of the first is higher: over 7.00 for the first, under 6.00 for the second.

Tested on: not given
Experiment: not given
Details: type 2 diabetes patients not on other anti-diabetic medications, six months of treatment, baseline value 7.9; cited from earlier work

For `Cc1c(C(=O)NN2CCCCC2)nn(-c2ccc(Cl)cc2Cl)c1-c1ccc(Cl)cc1` [rimonabant], the HbA1c levels lowered is listed as 0.8%.
